# From patent publication US6737383B1, “Herbicidal oxadiazolidines” (priority 1999, dated 2004)
# Tests used:
# bedstraw = assay: Test B pre/postemergence bedstraw; assay type: in vivo, Galium aparine
# Method in brief: (§1)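 Response is a visual 0-to-10 score relative to untreated plants, where 0 means no effect and 10 means complete control, taken twelve to sixteen days after application. Treatments went onto soil at planting and onto foliage of 1- to 4-leaf plants, using a surfactant-containing non-phytotoxic solvent.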
# blackgrass = assay: Test B pre/postemergence blackgrass; assay type: in vivo, Alopecurus myosuroides
# Method in brief: as §1
# surinam grass = assay: Test B pre/postemergence surinam grass; assay type: in vivo, Brachiaria decumbens
# Method in brief: as §1
# cocklebur = assay: Test B pre/postemergence cocklebur; assay type: in vivo, Xanthium strumarium
# Method in brief: as §1
# corn = assay: Test B pre/postemergence corn; assay type: in vivo, Zea mays
# Method in brief: as §1
# crabgrass = assay: Test B pre/postemergence crabgrass; assay type: in vivo, Digitaria sanguinalis
# Method in brief: as §1
# giant foxtail = assay: Test B pre/postemergence giant foxtail; assay type: in vivo, Setaria faberii
# Method in brief: as §1
# rape = assay: Test B pre/postemergence rape; assay type: in vivo, Brassica napus
# Method in brief: as §1
# soybean = assay: Test B pre/postemergence soybean; assay type: in vivo, Glycine max
# Method in brief: as §1
# sugar beet = assay: Test B pre/postemergence sugar beet; assay type: in vivo, Beta vulgaris
# Method in brief: as §1
# velvetleaf = assay: Test B pre/postemergence velvetleaf; assay type: in vivo, Abutilon theophrasti
# Method in brief: as §1
# wheat = assay: Test B pre/postemergence wheat; assay type: in vivo, Triticum aestivum
# Method in brief: as §1
# purple nutsedge = assay: Test B pre/postemergence purple nutsedge; assay type: in vivo, Cyperus rotundus
# Method in brief: as §1
# rice = assay: Test B flood test rice; assay type: in vivo, Oryza sativa
# Method in brief: (§2)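 Read-out is a visual response score from 0 (no effect) to 10 (complete control), assigned by comparison with untreated controls. Treatment was applied at the 2-leaf stage, and plants stayed in the greenhouse for twelve to sixteen days before scoring.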
# smallflower flatsedge = assay: Test B flood test smallflower flatsedge; assay type: in vivo, Cyperus difformis
# Method in brief: as §2
# duck salad = assay: Test B flood test duck salad; assay type: in vivo, Heteranthera limosa
# Method in brief: as §2
# bamyardgrass = assay: Test B flood test barnyardgrass; assay type: in vivo, Echinochloa crus-galli
# Method in brief: as §2
# [1] = Postemergence, Rate 62 g/ha, scale 0 to 10, 0 is no effect, 10 is complete control
# [2] = Postemergence, Rate 125 g/ha, scale of 0 to 10 where 0 is no effect and 10 is complete control
# [3] = Preemergence, Rate 125 g/ha, scale of 0 to 10 where 0 is no effect and 10 is complete control
# [4] = Preemergence, Rate 250 g/ha, scale 0 (no effect) to 10 (complete control)
# [5] = Rate 62 g/ha, Preemergence, scale 0 to 10
# [6] = Rate 250 g/ha, Postemergence, scale 0 to 10, 0 is no effect, 10 is complete control
# [7] = Rate 500 g/ha, Postemergence, scale 0 to 10, 0 is no effect, 10 is complete control
# [8] = Rate 500 g/ha, Preemergence, scale 0 to 10 (0 no effect, 10 complete control)
# [9] = Pre-emergence, Rate 62 g/ha, scale 0 to 10, 0 is no effect, 10 is complete control
# [10] = Rate 125 g/ha, Pre-emergence section (flood test species), scale 0 to 10, 0 no effect, 10 complete control
# [11] = Rate 250 g/ha, Pre-emergence (flood test species), scale 0 to 10, 0 is no effect, 10 is complete control
# [12] = Rate 500 g/ha, Pre-emergence section of Table B, 0 to 10 scale (0 no effect, 10 complete control)
structure (smiles),measurement,setting,value
CC(C)N(C(=O)n1oc(=O)n(CCN(C)C(=O)c2ccccc2)c1=O)c1ccc(F)cc1 [Compound 741],"Plant response rating, Bedstraw",bedstraw; [1],0
same,Bedstraw plant response rating,bedstraw; [2],0
same,"Plant response rating, Bedstraw",bedstraw; [3],0
same,Bedstraw plant response rating,bedstraw; [4],0
same,Bedstraw plant response rating,bedstraw; [5],0
same,Bedstraw plant response rating,bedstraw; [6],4
same,Bedstraw plant response rating,bedstraw; [7],9
same,Bedstraw plant response rating,bedstraw; [8],5
same,"Plant response rating, Blackgrass",blackgrass; [1],0
same,Blackgrass plant response rating,blackgrass; [2],0
same,"Plant response rating, Blackgrass",blackgrass; [3],0
same,Blackgrass plant response rating,blackgrass; [4],0
same,Blackgrass plant response rating,blackgrass; [5],0
same,Blackgrass plant response rating,blackgrass; [6],0
same,Blackgrass plant response rating,blackgrass; [7],0
same,Blackgrass plant response rating,blackgrass; [8],0
same,"Plant response rating, B. signalgrass",surinam grass; [1],0
same,B. signalgrass plant response rating,surinam grass; [2],0
same,B. signalgrass plant response rating,"surinam grass; Preemergence, Rate 62 g/ha, scale of 0 to 10 where 0 is no effect and 10 is complete control",0
same,"Plant response rating, B. signalgrass",surinam grass; [3],0
same,B. signalgrass plant response rating,surinam grass; [4],2
same,B. signalgrass plant response rating,surinam grass; [6],4
same,B. signalgrass plant response rating,surinam grass; [8],2
same,"Plant response rating, Cocklebur",cocklebur; [1],0
same,Cocklebur plant response rating,cocklebur; [2],0
same,"Plant response rating, Cocklebur",cocklebur; [3],0
same,Cocklebur plant response rating,cocklebur; [4],0
same,Cocklebur plant response rating,cocklebur; [5],0
same,Cocklebur plant response rating,cocklebur; [6],0
same,Cocklebur plant response rating,cocklebur; [7],0
same,"Plant response rating, Corn",corn; [1],0
same,Corn plant response rating,corn; [2],0
same,"Plant response rating, Corn",corn; [3],0
same,Corn plant response rating,corn; [4],0
same,Corn plant response rating,corn; [5],0
same,Corn plant response rating,corn; [6],0
same,Corn plant response rating,corn; [7],0
same,Corn plant response rating,corn; [8],0
same,"Plant response rating, Crabgrass",crabgrass; [1],9
same,"Plant response rating, Crabgrass",crabgrass; [3],5
same,Crabgrass plant response rating,crabgrass; [4],5
same,Crabgrass plant response rating,crabgrass; [5],5
same,Crabgrass plant response rating,crabgrass; [6],9
same,Crabgrass plant response rating,crabgrass; [8],10
same,"Plant response rating, Giant foxtail",giant foxtail; [1],0
same,Giant foxtail plant response rating,giant foxtail; [2],0
same,"Plant response rating, Giant foxtail",giant foxtail; [3],2
same,Giant foxtail plant response rating,giant foxtail; [4],9
same,Giant foxtail plant response rating,giant foxtail; [5],0
same,Giant foxtail plant response rating,giant foxtail; [6],3
same,Giant foxtail plant response rating,giant foxtail; [7],4
same,Giant foxtail plant response rating,giant foxtail; [8],10
same,"Plant response rating, Rape",rape; [1],0
same,Rape plant response rating,rape; [2],0
same,"Plant response rating, Rape",rape; [3],0
same,Rape plant response rating,rape; [4],0
same,Rape plant response rating,rape; [5],0
same,Rape plant response rating,rape; [6],0
same,Rape plant response rating,rape; [7],0
same,Rape plant response rating,rape; [8],0
same,"Plant response rating, Soybean",soybean; [1],2
same,Soybean plant response rating,soybean; [2],2
same,"Plant response rating, Soybean",soybean; [3],0
same,Soybean plant response rating,soybean; [4],0
same,Soybean plant response rating,soybean; [5],0
same,Soybean plant response rating,soybean; [6],3
same,Soybean plant response rating,soybean; [7],3
same,Soybean plant response rating,soybean; [8],0
same,"Plant response rating, Sugarbeets",sugar beet; [1],0
same,Sugarbeets plant response rating,sugar beet; [2],0
same,"Plant response rating, Sugarbeets",sugar beet; [3],0
same,Sugarbeets plant response rating,sugar beet; [4],0
same,Sugarbeets plant response rating,sugar beet; [5],0
same,Sugarbeets plant response rating,sugar beet; [6],4
same,Sugarbeets plant response rating,sugar beet; [7],4
same,Sugarbeets plant response rating,sugar beet; [8],4
same,"Plant response rating, Velvetleaf",velvetleaf; [1],0
same,Velvetleaf plant response rating,velvetleaf; [2],0
same,"Plant response rating, Velvetleaf",velvetleaf; [3],3
same,Velvetleaf plant response rating,velvetleaf; [4],3
same,Velvetleaf plant response rating,velvetleaf; [5],0
same,Velvetleaf plant response rating,velvetleaf; [6],0
same,Velvetleaf plant response rating,velvetleaf; [7],1
same,Velvetleaf plant response rating,velvetleaf; [8],3
same,"Plant response rating, Wheat",wheat; [1],0
same,Wheat plant response rating,wheat; [2],0
same,"Plant response rating, Wheat",wheat; [3],0
same,Wheat plant response rating,wheat; [4],0
same,Wheat plant response rating,wheat; [5],0
same,Wheat plant response rating,wheat; [6],0
same,Wheat plant response rating,wheat; [7],3
same,Wheat plant response rating,wheat; [8],4
same,"Plant response rating, Nutsedge",purple nutsedge; [1],0
same,Nutsedge plant response rating,purple nutsedge; [2],0
same,"Plant response rating, Nutsedge",purple nutsedge; [3],0
same,Nutsedge plant response rating,purple nutsedge; [4],0
same,Nutsedge plant response rating,purple nutsedge; [5],0
same,Nutsedge plant response rating,purple nutsedge; [6],0
same,Nutsedge plant response rating,purple nutsedge; [7],0
same,Nutsedge plant response rating,purple nutsedge; [8],0
same,Rice plant response rating,rice; [9],0
same,Rice plant response rating,rice; [10],0
same,Rice plant response rating,rice; [11],0
same,Rice plant response rating,rice; [12],0
same,S. Flatsedge plant response rating,smallflower flatsedge; [9],0
same,S. Flatsedge plant response rating,smallflower flatsedge; [10],0
same,S. Flatsedge plant response rating,smallflower flatsedge; [11],0
same,S. Flatsedge plant response rating,smallflower flatsedge; [12],8
same,Ducksalad plant response rating,duck salad; [9],0
same,Ducksalad plant response rating,duck salad; [10],0
same,Ducksalad plant response rating,duck salad; [11],0
same,Ducksalad plant response rating,duck salad; [12],0
same,Barnyardgrass plant response rating,bamyardgrass; [9],0
same,Barnyardgrass plant response rating,bamyardgrass; [10],0
same,Barnyardgrass plant response rating,bamyardgrass; [11],0
same,Barnyardgrass plant response rating,bamyardgrass; [12],0
